Results on 7 molecules are retold here after PubChem BioAssay (NCI).

Some test systems named below: SF-539 CNS; SNB-75 CNS; OVCAR-8 ovarian; SK-MEL-5 melanoma; A498 renal; SK-MEL-2 melanoma; SK-MEL-28 melanoma; BT-549 breast; MALME-3M melanoma; EKVX NSCLC.
Common to all, as to assay: inhibition of tumour cell growth, NCI panel, 48 h

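Step 1: Grow cells in 96-well plates. Step 2: Expose to compound for 48 hours at 5 concentrations. Step 3: Interpolate endpoints linearly; if unreached, use highest concentration. GI50 is the concentration that inhibits growth by half. At the TGI there is no net growth.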 Where only a bound is given, the exact number is not on record here.

With `NCCCn1c2c(c3ccccc3c1=O)C(=O)c1ccccc1-2`, the GI50 with SF-539 CNS is 0.104 µM; with SNB-75 CNS, 0.539 µM; with OVCAR-8 ovarian, 0.0658 µM; in the assay on SK-MEL-5 melanoma, 0.105 µM; in the assay with A498 renal, 0.0481 µM; with SK-MEL-2 melanoma, 4.31 µM. Further, the GI50 in the assay on SK-MEL-28 melanoma is 0.842 µM; with BT-549 breast it was 1.47 µM; with MALME-3M melanoma, 0.156 µM; with EKVX NSCLC it was 0.539 µM. In addition, the TGI with SF-539 CNS came to 1.13 µM; in the assay with SNB-75 CNS, 3.71 µM; in the assay on OVCAR-8 ovarian, 1.32 µM; with SK-MEL-5 melanoma, 0.948 µM; in the assay with A498 renal it was 0.919 µM; in the assay with SK-MEL-2 melanoma it was 12.5 µM. In addition, the TGI in the assay with SK-MEL-28 melanoma was 3.03 µM; in the assay with BT-549 breast it was 12.4 µM; in the assay with MALME-3M melanoma, 1.46 µM; with EKVX NSCLC it was 2.9 µM.

Turning to `COc1ccc(-c2nn(-c3cccc(Cl)c3)cc2-c2nc(N)[nH]c(=O)c2C#N)cc1`, the GI50 with SF-539 CNS was 6.59 µM; in the assay with SNB-75 CNS it was 2.88 µM; in the assay with OVCAR-8 ovarian, 10.1 µM; in the assay with SK-MEL-5 melanoma, 4.07 µM; with A498 renal, 1.47 µM; with SK-MEL-2 melanoma it was 3.94 µM. The GI50 in the assay on SK-MEL-28 melanoma is 4.98 µM; in the assay with BT-549 breast, 3.54 µM; in the assay on MALME-3M melanoma it was 5.83 µM; in the assay on EKVX NSCLC it was 3.29 µM. Further, the TGI amounted to 32.2 µM in the assay with SF-539 CNS; 21.1 µM in the assay with SNB-75 CNS; 60.3 µM in the assay with OVCAR-8 ovarian; 15.9 µM with SK-MEL-5 melanoma; 6.75 µM in the assay with A498 renal; 15.8 µM with SK-MEL-2 melanoma. For the same molecule, the TGI was determined as 27.9 µM with SK-MEL-28 melanoma, 22.4 µM in the assay with BT-549 breast, 40.6 µM with MALME-3M melanoma and 35.4 µM in the assay on EKVX NSCLC.

Turning to `COC(=O)[C@]12CC[C@@H](C)[C@H](C)[C@@H]1C1=CC[C@@H]3[C@@]4(C)C(C=O)=C[C@@](C)(COC(=O)c5ccco5)[C@@H]4[C@H](O)C[C@@]3(C)[C@]1(C)CC2`, the GI50 in the assay with SF-539 CNS is 1.89 µM; with SNB-75 CNS, 1.49 µM; with OVCAR-8 ovarian, 2.9 µM; in the assay on SK-MEL-5 melanoma, 0.453 µM; with A498 renal, 3.19 µM; with SK-MEL-2 melanoma, 0.423 µM. Also, the GI50 in the assay on SK-MEL-28 melanoma was 0.0918 µM; in the assay on BT-549 breast, 2.07 µM; in the assay on MALME-3M melanoma, 0.224 µM; with EKVX NSCLC, 3.02 µM. For the same molecule, the TGI in the assay with SF-539 CNS came out at 3.93 µM; in the assay with SNB-75 CNS, 4.12 µM; in the assay on OVCAR-8 ovarian it was 13.4 µM; in the assay on SK-MEL-5 melanoma, 1.65 µM; with A498 renal it was 12.7 µM; with SK-MEL-2 melanoma, 1.9 µM. In addition, the TGI is 2.64 µM with SK-MEL-28 melanoma, 6.65 µM with BT-549 breast, 1.17 µM with MALME-3M melanoma and 13.8 µM in the assay with EKVX NSCLC.

Consider `COc1ccc(-c2cc(Nc3ccnc(N4CCOCC4)n3)on2)cc1`, for which the GI50 is 0.264 µM in the assay on SF-539 CNS; 0.1 µM in the assay on SNB-75 CNS; 0.443 µM in the assay on OVCAR-8 ovarian; 0.189 µM in the assay with SK-MEL-5 melanoma; 0.343 µM with A498 renal; 0.457 µM with SK-MEL-2 melanoma. For the same molecule, the GI50 in the assay on SK-MEL-28 melanoma is 4.1 µM; in the assay with BT-549 breast it was 0.802 µM; in the assay on MALME-3M melanoma it was 0.289 µM; with EKVX NSCLC, 0.685 µM. The TGI in the assay with SF-539 CNS turned out to be 1.16 µM; in the assay on SNB-75 CNS it was 0.576 µM; in the assay on OVCAR-8 ovarian, 11.4 µM; with SK-MEL-5 melanoma it was 2.07 µM; with A498 renal it was 2.41 µM; in the assay with SK-MEL-2 melanoma, 29.5 µM. Also, the TGI was 19.9 µM in the assay on SK-MEL-28 melanoma, 15.1 µM in the assay on BT-549 breast, 17.4 µM in the assay with MALME-3M melanoma and 17 µM with EKVX NSCLC.

`Cc1ccc2occ/c(=N\Nc3ccccc3)c2c1`: the TGI in the assay on SF-539 CNS was greater than 100 µM; in the assay on SNB-75 CNS, 63.2 µM; with OVCAR-8 ovarian, greater than 100 µM; with SK-MEL-5 melanoma, greater than 100 µM; with A498 renal, greater than 100 µM; in the assay with SK-MEL-2 melanoma it was greater than 100 µM. The TGI in the assay on SK-MEL-28 melanoma is greater than 100 µM; with BT-549 breast, greater than 100 µM; in the assay with MALME-3M melanoma it was greater than 100 µM; in the assay with EKVX NSCLC, 98 µM.

Regarding `Cn1cc(S(=O)(=O)N2CCC3=Cc4c(cnn4-c4ccc(F)cc4)C[C@]3(C(=O)c3cc(C(F)(F)F)ccn3)C2)cn1`, the GI50 in the assay with SF-539 CNS is 95.8 µM; with SNB-75 CNS it was greater than 100 µM; in the assay with OVCAR-8 ovarian, greater than 100 µM; with SK-MEL-5 melanoma, 57.7 µM; with A498 renal, 4.64 µM; in the assay on SK-MEL-2 melanoma it was 88.2 µM. Further, the GI50 is greater than 100 µM in the assay on SK-MEL-28 melanoma, 26.6 µM in the assay with BT-549 breast, greater than 100 µM in the assay with MALME-3M melanoma and 7.98 µM in the assay on EKVX NSCLC. The TGI in the assay on SF-539 CNS, with SNB-75 CNS, with OVCAR-8 ovarian, in the assay with SK-MEL-5 melanoma, with A498 renal and in the assay with SK-MEL-2 melanoma was greater than 100 µM each time. Also, the TGI in the assay on SK-MEL-28 melanoma, with BT-549 breast, in the assay on MALME-3M melanoma and with EKVX NSCLC was greater than 100 µM each time.

As for `CCOC(=O)C1=C(N)Oc2c(sc3c(C)cccc23)C1c1ccc(F)cc1` (stereo not given), the GI50 in the assay with SF-539 CNS is 0.36 µM; with SNB-75 CNS, 0.265 µM; with OVCAR-8 ovarian, 0.581 µM; in the assay with SK-MEL-5 melanoma, 1.18 µM; in the assay on A498 renal, 0.211 µM; in the assay on SK-MEL-2 melanoma, 5.39 µM. In addition, the GI50 is 8.71 µM in the assay on SK-MEL-28 melanoma, 2.07 µM in the assay with BT-549 breast, 0.588 µM in the assay on MALME-3M melanoma and 0.88 µM in the assay on EKVX NSCLC. Besides, the TGI with SF-539 CNS was 3.48 µM; with SNB-75 CNS it was 11.7 µM; in the assay on OVCAR-8 ovarian, 18.1 µM; with SK-MEL-5 melanoma, 8.49 µM; in the assay on A498 renal, 1.26 µM; with SK-MEL-2 melanoma, 24.8 µM. Further, the TGI was found to be 22.1 µM with SK-MEL-28 melanoma, 12.6 µM in the assay with BT-549 breast, 20.8 µM with MALME-3M melanoma and 19.7 µM with EKVX NSCLC.
